What was measured:
[1] = biological target: His tagged CRBN+DDB−DLS7+CXU4 (Homo sapiens (Human), UniProt Q96SW2); assay: IC50 Measurements for Binding to CRBN/DDBI (HTRF); details: Cy5-labeled Thalidomide probe, one hour incubation
IKZF2 = IKZF2 (Homo sapiens (Human), UniProt Q96SW2+Q9UKS7); assay: IKZF2 HiBit Assay (HEK293T Flp-in-HiBiT cells); format: cell-based; details: HEK293T Flp-in-HiBiT cells, 6 hrs; for DC50: read-out: IKZF2 HiBit degradation DC50; for Dmax: HEK-293T, read-out: IKZF2 HiBit degradation Dmax
Sequence of IKZF2 (Q9UKS7 whole entry): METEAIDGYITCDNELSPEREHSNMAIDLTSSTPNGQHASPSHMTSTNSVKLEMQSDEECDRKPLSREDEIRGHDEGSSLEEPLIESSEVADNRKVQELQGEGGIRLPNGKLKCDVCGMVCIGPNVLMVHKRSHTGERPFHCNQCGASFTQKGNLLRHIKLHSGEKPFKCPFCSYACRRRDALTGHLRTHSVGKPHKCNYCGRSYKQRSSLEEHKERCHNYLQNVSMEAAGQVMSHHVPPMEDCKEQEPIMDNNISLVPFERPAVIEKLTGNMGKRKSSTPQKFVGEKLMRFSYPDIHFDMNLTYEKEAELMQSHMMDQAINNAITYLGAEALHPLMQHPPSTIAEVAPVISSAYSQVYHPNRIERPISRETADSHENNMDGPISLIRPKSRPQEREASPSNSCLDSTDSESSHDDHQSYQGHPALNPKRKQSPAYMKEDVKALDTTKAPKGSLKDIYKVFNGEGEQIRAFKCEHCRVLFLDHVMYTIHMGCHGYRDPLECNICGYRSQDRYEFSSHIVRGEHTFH
Sequence of IKZF2 (Q96SW2 whole entry): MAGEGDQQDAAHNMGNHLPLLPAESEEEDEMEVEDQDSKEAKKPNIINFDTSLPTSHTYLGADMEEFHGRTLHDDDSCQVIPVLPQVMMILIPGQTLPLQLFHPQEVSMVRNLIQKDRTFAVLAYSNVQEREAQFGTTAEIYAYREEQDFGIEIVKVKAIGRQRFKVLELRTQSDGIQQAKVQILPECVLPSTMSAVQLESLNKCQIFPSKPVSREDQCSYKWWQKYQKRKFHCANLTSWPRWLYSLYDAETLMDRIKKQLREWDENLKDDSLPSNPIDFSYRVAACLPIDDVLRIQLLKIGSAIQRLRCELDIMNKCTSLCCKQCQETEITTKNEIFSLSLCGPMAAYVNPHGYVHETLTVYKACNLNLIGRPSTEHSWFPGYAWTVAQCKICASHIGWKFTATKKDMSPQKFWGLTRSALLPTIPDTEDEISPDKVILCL
Sequence of IKZF2 (Q16531 whole entry partner): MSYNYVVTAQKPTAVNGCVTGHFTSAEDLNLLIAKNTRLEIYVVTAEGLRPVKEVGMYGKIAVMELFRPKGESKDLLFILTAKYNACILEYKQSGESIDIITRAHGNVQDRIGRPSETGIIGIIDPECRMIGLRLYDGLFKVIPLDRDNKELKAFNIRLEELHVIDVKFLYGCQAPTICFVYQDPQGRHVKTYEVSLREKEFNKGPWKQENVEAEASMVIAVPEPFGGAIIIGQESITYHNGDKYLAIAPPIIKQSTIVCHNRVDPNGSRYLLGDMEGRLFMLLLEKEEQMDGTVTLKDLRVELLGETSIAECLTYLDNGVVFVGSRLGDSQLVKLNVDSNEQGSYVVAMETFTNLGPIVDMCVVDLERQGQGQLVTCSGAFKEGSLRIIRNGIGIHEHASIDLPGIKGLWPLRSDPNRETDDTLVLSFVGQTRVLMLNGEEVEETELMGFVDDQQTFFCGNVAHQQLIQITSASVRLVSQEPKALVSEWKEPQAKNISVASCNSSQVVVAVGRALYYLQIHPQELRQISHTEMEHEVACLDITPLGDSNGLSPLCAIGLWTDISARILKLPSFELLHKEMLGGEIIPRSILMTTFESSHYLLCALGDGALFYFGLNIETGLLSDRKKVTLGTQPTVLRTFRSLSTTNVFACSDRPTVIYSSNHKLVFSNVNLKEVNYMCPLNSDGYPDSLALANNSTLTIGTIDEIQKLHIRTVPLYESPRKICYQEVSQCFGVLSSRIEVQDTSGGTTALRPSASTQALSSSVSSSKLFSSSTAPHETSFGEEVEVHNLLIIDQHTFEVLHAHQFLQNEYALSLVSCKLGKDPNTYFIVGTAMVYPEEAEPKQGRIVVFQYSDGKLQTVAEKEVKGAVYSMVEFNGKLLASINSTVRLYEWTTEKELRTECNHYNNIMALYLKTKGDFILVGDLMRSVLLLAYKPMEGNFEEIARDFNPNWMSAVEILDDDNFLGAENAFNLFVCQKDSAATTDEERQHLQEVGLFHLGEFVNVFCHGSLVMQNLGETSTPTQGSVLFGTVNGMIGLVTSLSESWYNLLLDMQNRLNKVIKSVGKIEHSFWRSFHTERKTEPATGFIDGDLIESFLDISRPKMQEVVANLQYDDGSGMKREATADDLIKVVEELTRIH
Method: The HiBiT protein tagging system was applied to modified HEK293T Flp-in-HiBiT cells (polyclone) via a CRISPR/Cas9—mediated insertion of the HiBiT peptide tag (Promega™) to the N-terminus of the IKZF2 gene locus (Neon™ transfection system). Test and reference compounds are diluted from 1 mM at 3 folds for 11 doses. 25 nL of diluted compound is transferred to assay plates (Corning3570) using ECHO550, the final DMSO concentration @0.1%. The cells are seeded in 3000/[…]/well to compound plates. It is then incubated for 6 hrs in TC incubator. The amount of Nano-Glo® HiBiT lytic reagent needed to perform the desired experiments is calculated. The Nano-Glo® HiBiT lytic reagent is brought to room temperature. The LgBiT protein is diluted to 1:100 and the Nano-Glo® HiBiT lytic substrate is diluted to 1:50 into an appropriate volume of room temperature Nano-Glo® HiBiT lytic buffer. […] of the detection reagent (or without LgBiT) is dispensed to corresponding well according to the layout. The plate is then shaked for 10 mins at room temperature. After briefly centrifuge, the plate is read on Envision. At the indicated timepoints, the Nano-Glo® HiBiT lytic detection system (Promega™) was utilized for detecting bioluminescence of the HiBiT tag in treated cells: abundance of the tag is proportionate to the level of luminescence. Following normalization to DMSO, dose-response curves were plotted (GraphPad Prism) to determine the concentration points at which 50% of HiBiT-Helios degradation was achieved by each compound. The extent of degradation (range of luminescence) from the highest to lowest concentration points was calculated to determine the Dmax.

IKZF1 = IKZF1 (Homo sapiens (Human), UniProt Q13422+Q96SW2); assay: IKZF1 HiBit Assay (HEK293T Flp-in-HiBiT-IKZF1 stable cell line); format: cell-based; details: HEK293T Flp-in-HiBiT-IKZF1 cells, 6 hrs; for DC50: read-out: IKZF1 HiBit degradation DC50; for Dmax: HEK-293T, read-out: IKZF1 HiBit degradation Dmax
Sequence of IKZF1 (Q13422 whole entry): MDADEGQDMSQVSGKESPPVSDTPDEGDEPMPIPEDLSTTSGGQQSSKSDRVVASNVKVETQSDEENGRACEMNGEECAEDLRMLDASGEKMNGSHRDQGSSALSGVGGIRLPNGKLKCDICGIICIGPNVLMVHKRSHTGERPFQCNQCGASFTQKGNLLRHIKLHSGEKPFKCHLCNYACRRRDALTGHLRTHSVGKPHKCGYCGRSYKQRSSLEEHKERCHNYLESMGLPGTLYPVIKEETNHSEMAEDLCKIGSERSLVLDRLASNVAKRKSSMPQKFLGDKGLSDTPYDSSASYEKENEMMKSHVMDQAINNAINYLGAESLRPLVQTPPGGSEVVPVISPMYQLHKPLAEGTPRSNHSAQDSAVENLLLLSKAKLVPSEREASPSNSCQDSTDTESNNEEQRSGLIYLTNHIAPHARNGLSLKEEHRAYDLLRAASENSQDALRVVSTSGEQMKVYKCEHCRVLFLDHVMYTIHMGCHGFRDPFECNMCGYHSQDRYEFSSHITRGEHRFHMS
Sequence of IKZF1 (Q96SW2 whole entry): as the sequence (Q96SW2 whole entry) above
Sequence of IKZF1 (Q16531 whole entry partner): as the sequence (Q16531 whole entry partner) above
Method: The HiBiT protein tagging system was applied to modified Cells: modified HEK293T Flp-in-HiBiT-IKZF1 stable cell line (polyclone) via a CRISPR/Cas9—mediated insertion of the HiBiT peptide tag (Promega™) to the N-terminus of the IKZF2 gene locus (Neon™ transfection system).
Test compound from 10 mM and reference compound (CC-92480 from 50 mM and I-57 from 10 mM) are diluted at 3 folds for 11 doses. 25 nL of diluted compound is transferred to assay plates (Corning3571) using ECHO550, the final DMSO concentration @0.1%. The cells are seeded in 3000/[…]/well to compound plates. The plates are incubated for 6 hrs in TC incubator. The amount of Nano-Glo® HiBiT lytic reagent needed to perform the desired experiments is calculated. The Nano-Glo® HiBiT lytic reagent is brought to room temperature. The LgBiT protein is diluted to 1:100 and the Nano-Glo® HiBiT lytic substrate is brought to 1:50 into an appropriate volume of room temperature Nano-Glo® HiBiT lytic buffer. […] of the detection reagent (or without LgBiT) is dispensed to corresponding well according to the layout. The plate is shaked for 10 mins at room temperature. After briefly centrifuging, the plate is read on Envision. At the indicated timepoints, the Nano-Glo® HiBiT lytic detection system (Promega™) was utilized for detecting bioluminescence of the HiBiT tag in treated cells: abundance of the tag is proportionate to the level of luminescence. Following normalization to DMSO, dose-response curves were plotted (GraphPad Prism) to determine the concentration points at which 50% of HiBiT-Ikaros degradation was achieved by each compound. The extent of degradation (range of luminescence) from the highest to lowest concentration points was calculated to determine the Dm.

Sequence of His tagged CRBN+DDB−DLS7+CXU4 (Q96SW2 whole entry): as the sequence (Q96SW2 whole entry) above
Sequence of His tagged CRBN+DDB−DLS7+CXU4 (Q16531 whole entry partner): as the sequence (Q16531 whole entry partner) above

SMILES | IC50 [1] [nM] | DC50 (IKZF2) [nM] | Dmax (IKZF2) [%] | DC50 (IKZF1) [nM] | Dmax (IKZF1) [%]
O=C1CC[C@H](N2Cc3c(ccc4c3OCC43CCN(Cc4ccc5c(c4)CC(=O)N5)CC3(F)F)C2=O)C(=O)N1 (stereo partly drawn) [Compound B28, (3S)-3-(3′,3′-difluoro-6-oxo-1′-((2-oxoindolin-5-yl)methyl)-6,8-dihydro-2H,7H-spiro[furo[2,3-e]isoindole-3,4′-piperidin]-7-yl)piperidine-2,6-dione] | 100 to 500 | 1 to 10 | 60 to 80 | > 1000 | < 20
O=C1CCC(N2Cc3c(ccc4c3OCC43CCN(Cc4ccccc4)CC3O)C2=O)C(=O)N1 (stereo not drawn) [Compound B22, 3-(1′-benzyl-3′-hydroxy-6-oxo-6,8-dihydro-2H,7H-spiro[furo[2,3-e]isoindole-3,4′-piperidin]-7-yl)piperidine-2,6-dione] | 100 to 500 | 10 to 100 | 20 to 40 | > 1000 | < 20
[2H]C([2H])(c1cccc(-c2cnn(C([2H])([2H])[2H])c2)c1)N1CCC2(CC1)COc1c2ccc2c1CN([C@H]1CCC(=O)NC1=O)C2=O [Compound B9, (S)-3-(1′-((3-(1-(methyl-d3)-1H-pyrazol-4-yl)phenyl)methyl-d2)-6-oxo-6,8-dihydro-2H,7H-spiro[furo[2,3-e]isoindole-3,4′-piperidin]-7-yl)piperidine-2,6-dione] | < 100 | 1 to 10 | 60 to 80 | > 1000 | < 20
Cn1cc2ccc(CN3CCC4(COc5c4ccc4c5CN([C@H]5CCC(=O)NC5=O)C4=O)C(F)(F)C3)cc2n1 (stereo partly drawn) [Compound B35, (3S)-3-(3′,3′-difluoro-1′-((2-methyl-2H-indazol-6-yl)methyl)-6-oxo-6,8-dihydro-2H,7H-spiro[furo[2,3-e]isoindole-3,4′-piperidin]-7-yl)piperidine-2,6-dione] | < 100 | 1 to 10 | 60 to 80 | > 1000 | < 20
Cn1ncc2c(CN3CCC4(COc5c4ccc4c5CN([C@H]5CCC(=O)NC5=O)C4=O)C(F)(F)C3)cccc21 (stereo partly drawn) [Compound B43, (3S)-3-(3′,3′-difluoro-1′-((1-methyl-1H-indazol-4-yl)methyl)-6-oxo-6,8-dihydro-2H,7H-spiro[furo[2,3-e]isoindole-3,4′-piperidin]-7-yl)piperidine-2,6-dione] | 1000 to 5000 | 1 to 10 | 60 to 80 | > 1000 | < 20
Cn1cc2cccc(CN3CCC4(COc5c4ccc4c5CN([C@H]5CCC(=O)NC5=O)C4=O)C(F)(F)C3)c2n1 (stereo partly drawn) [Compound B36, (3S)-3-(3′,3′-difluoro-1′-((2-methyl-2H-indazol-7-yl)methyl)-6-oxo-6,8-dihydro-2H,7H-spiro[furo[2,3-e]isoindole-3,4′-piperidin]-7-yl)piperidine-2,6-dione] | 100 to 500 | 1 to 10 | 60 to 80 | < 1 | 20 to 40
O=C1CC[C@H](N2Cc3c(ccc4c3OCC43CCN(Cc4cnn(S(=O)(=O)c5ccccc5Cl)c4)CC3(F)F)C2=O)C(=O)N1 (stereo partly drawn) [Compound B29, (3S)-3-(1′-((1-((2-chlorophenyl)sulfonyl)-1H-pyrazol-4-yl)methyl)-3′,3′-difluoro-6-oxo-6,8-dihydro-2H,7H-spiro[furo[2,3-e]isoindole-3,4′-piperidin]-7-yl)piperidine-2,6-dione] | < 100 | < 1 | > 80 | 1 to 10 | > 40
[2H]C([2H])(c1cccc(-c2cnn(C)c2)c1)N1CCC2(COc3c2ccc2c3CN([C@H]3CCC(=O)NC3=O)C2=O)C(F)(F)C1 (stereo partly drawn) [Compound B50] | 100 to 500 | 1 to 10 | 60 to 80 | > 1000 | < 20
Cn1cc2cc(CN3CCC4(COc5c4ccc4c5CN([C@H]5CCC(=O)NC5=O)C4=O)C(F)(F)C3)ccc2n1 (stereo partly drawn) [Compound B37, (3S)-3-(3′,3′-difluoro-1′-((2-methyl-2H-indazol-5-yl)methyl)-6-oxo-6,8-dihydro-2H,7H-spiro[furo[2,3-e]isoindole-3,4′-piperidin]-7-yl)piperidine-2,6-dione] | < 100 | 1 to 10 | 60 to 80 | > 1000 | < 20
O=C1CC[C@H](N2Cc3c(ccc4c3OCC43CCN(Cc4ccc5[nH]ncc5c4)CC3(F)F)C2=O)C(=O)N1 (stereo partly drawn) [Compound B40, (3S)-3-(1′-((1H-indazol-5-yl)methyl)-3′,3′-difluoro-6-oxo-6,8-dihydro-2H,7H-spiro[furo[2,3-e]isoindole-3,4′-piperidin]7-yl) piperidine-2,6-dione] | 100 to 500 | 1 to 10 | 60 to 80 | > 1000 | < 20
O=C1CC[C@H](N2Cc3c(ccc4c3OCC43CCN(Cc4cc(-c5ccc(Cl)cc5)no4)CC3)C2=O)C(=O)N1 [Compound B2, (S)-3-(1′-((3-(4-chlorophenyl)isoxazol-5-yl)methyl)-6-oxo-6,8-dihydro-2H,7H-spiro[furo[2,3-e]isoindole-3,4′-piperidin]-7-yl)piperidine-2,6-dione] | 1000 to 5000 | 1 to 10 | 60 to 80 | 10 to 100 | 20 to 40
Cc1cc2c(c3c1C(=O)N([C@H]1CCC(=O)NC1=O)C3)OCC21CCN(Cc2cccc(-c3cnn(C)c3)c2)CC1 [Compound B20, (S)-3-(5-methyl-1′-(3-(1-methyl-1H-pyrazol-4-yl)benzyl)-6-oxo-6,8-dihydro-2H,7H-spiro[furo[2,3-e]isoindole-3,4′-piperidin]-7-yl)piperidine-2,6-dione] | 500 to 1000 | > 1000 | 20 to 40 | > 1000 | < 20
O=C1CCC(N2Cc3c(ccc4c3OCC43CCN(Cc4ccccc4)CC3F)C2=O)C(=O)N1 (stereo not drawn) [Compound B23, 3-(1′-benzyl-3′-fluoro-6-oxo-6,8-dihydro-2H,7H-spiro[furo[2,3-e]isoindole-3,4′-piperidin]-7-yl)piperidine-2,6-dione] | 500 to 1000 | > 1000 | < 20 | > 1000 | < 20
O=C1CC[C@H](N2Cc3c(ccc4c3OCC43CCN(Cc4cnn(-c5ccc(Cl)cc5)c4C(F)(F)F)CC3)C2=O)C(=O)N1 [Compound B1, (S)-3-(1′-((1-(4-chlorophenyl)-5-(trifluoromethyl)-1H-pyrazol-4-yl)methyl)-6-oxo-6,8-dihydro-2H,7H-spiro[furo[2,3-e]isoindole-3,4′-piperidin]-7-yl) piperidine-2,6-dione] | 500 to 1000 | 1 to 10 | 40 to 60 | 100 to 1000 | 20 to 40
O=C1CC[C@H](N2Cc3c(ccc4c3OCC43CCN(Cc4cn(-c5ccc(Cl)cc5)nc4Cl)CC3)C2=O)C(=O)N1 [Compound B4, (S)-3-(1′-((3-chloro-1-(4-chlorophenyl)-1H-pyrazol-4-yl)methyl)-6-oxo-6,8-dihydro-2H,7H-spiro[furo[2,3-e]isoindole-3,4′-piperidin]-7-yl)piperidine-2,6-dione] | 500 to 1000 | 1 to 10 | 60 to 80 | > 1000 | < 20
